Assay results taken from publication PMC6281186, “Bioinformatics: A rational combine approach used for the identification and in-vitro activity evaluation of potent β-Glucuronidase inhibitors” (PLoS ONE, 2018).

Target: T1, β-glucuronidase enzyme (Escherichia coli, UniProt P05804)
T1 construct: purchased Sigma Aldrich G7396-25KU
Assay: β-Glucuronidase inhibition assay (spectrophotometric, p-nitrophenyl-β-D-glucuronide)
Assay type: biochemical
Protocol: β-Glucuronidase inhibitory activity was determined with the help of spectrophotometric method by measuring the absorbance at 405 nm of p-nitrophenol formed from the substrate (p-nitrophenyl-β-D-glucuronide, N1627-250 mg, Sigma Aldrich). The total reaction volume was 250 μL. The compound dissolved in DMSO (100%), which becomes 2% in the ultimate assay (250 μL) and the similar conditions were used for standard (D-saccharic acid 1, 4-lactone, Sigma Aldrich). The reaction mixture contained 185 μL of 0.1 M acetate buffer, 5 μL of test compound solution, 10 μL of (1U) enzyme solution (G7396-25KU, Sigma Aldrich) was incubated at 37°C for 30 min. The plates were read on a multiplate reader (SpectraMax plus 384) at 405 nm after the addition of 50 μL of 0.4 mM p-nitrophenyl-β-D-glucuronide. All assays were performed in triplicate. IC50values were calculated by using EZ-Fit software (Perrella Scientific Inc., Amherst, MA, U.S.A.). These values are the mean of three independent readings^ [23]

T1 sequence (P05804 whole entry): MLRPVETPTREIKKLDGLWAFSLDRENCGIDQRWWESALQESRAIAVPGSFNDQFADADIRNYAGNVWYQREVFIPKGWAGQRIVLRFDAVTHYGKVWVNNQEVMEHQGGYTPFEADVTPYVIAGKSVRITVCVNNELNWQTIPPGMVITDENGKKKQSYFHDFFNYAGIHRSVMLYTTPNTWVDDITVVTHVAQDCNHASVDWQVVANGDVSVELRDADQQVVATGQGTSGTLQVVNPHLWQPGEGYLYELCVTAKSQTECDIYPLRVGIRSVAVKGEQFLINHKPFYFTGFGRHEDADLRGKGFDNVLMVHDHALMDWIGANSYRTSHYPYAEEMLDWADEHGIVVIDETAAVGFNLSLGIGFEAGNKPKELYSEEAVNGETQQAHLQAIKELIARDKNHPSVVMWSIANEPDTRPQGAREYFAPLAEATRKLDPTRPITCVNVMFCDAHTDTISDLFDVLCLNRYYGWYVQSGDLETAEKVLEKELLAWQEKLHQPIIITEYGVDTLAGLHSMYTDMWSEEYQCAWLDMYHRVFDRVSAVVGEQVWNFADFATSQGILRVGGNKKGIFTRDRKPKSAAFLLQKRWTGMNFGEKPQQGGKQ

`O=C1OC(C(O)C(=O)O)C(O)C1O` [D-saccharic acid 1,4-lactone] was tested, and the “% Inhibition” value (Conc. 200 μM) was 89.4% and the IC50 (β-glucuronidase inhibition, mean of three readings, read-out: IC50 μM±SEM) was 45.8 ± 2.16 µM.
